# Source: paper PMC5218480 (PLoS ONE, 2017)
# System: MV-4-11 cells
# Assay: Gene expression microarray analysis (Affymetrix PrimeView) and GSEA
# Assay type: cell-based, human
# Conditions: ProbeSet 11754607_s_at; LIST B
smiles,measurement,value
Nc1ccc(-c2cccs2)cc1NC(=O)c1ccc2c(c1)cc(C1CC1)n2CCN1CCOCC1 [ACY-1035],"RFU, HSP90B1 /// MIR3652",2548.05 RFU
